Measured values published in patent publication US10154992B2, “Compounds and methods for treating HIV infection” (THE REGENTS OF THE UNIVERSITY OF CALIFORNIA, priority 2016, dated 2018).

system: not listed separately; test: MTT cell viability run in parallel with the Tat-hybrid assay; format: cell-based; settings: human, Tat-hybrid reporter cell lines (HeLa); Table 5; read-out: Tat hybrid TC50
Method: (§1) Cells were counted and plated into white 384-well or 96-well cell-culture treated assay plates and compounds were added. After 48 hours, the cells were prepared for luminescence assays that were performed on a plate reader (Tecan Evolution or MD Analyst). The cytotoxicity of each compound was determined in parallel via MTT-based cell viability assays.
as §1, with “Tat hybrid reporter assay. […] Previously characterized thienopyridines and diaminoacridine were used as controls. Cells” for “Cells”, “384-well” for “384-well or 96-well”, “lumincescence” for “luminescence”, “assays. […]” for “assays.”

Compound | CC50 at 48 h
NC(=O)c1cccc(-c2cncc3sc(C(N)=O)c(N)c23)c1 | < 40 µM
NC(=O)c1sc2cncc(-c3cccc(-c4ccccc4)c3)c2c1N | < 40 µM
CC(C)c1n[nH]c2c1CN(c1cncc3sc(C(N)=O)c(N)c13)CC2 | < 40 µM
NC(=O)c1sc2cncc(-c3cncc4ccccc34)c2c1N | > 40 µM
CS(=O)(=O)c1ccc(C(=O)N2CCN(c3cncc4sc(C(N)=O)c(N)c34)CC2)cc1 | < 40 µM
NC(=O)c1sc2cncc(N3CCCC(c4nc5ccccc5o4)C3)c2c1N (stereo not drawn) | < 40 µM
NC(=O)c1sc2cncc(-c3cccc4cccnc34)c2c1N | > 40 µM
CN1CCN(c2cncc3sc(C(N)=O)c(N)c23)CC1 | < 40 µM
COc1cc(C(=O)N2CCN(c3cncc4sc(C(N)=O)c(N)c34)CC2)ccc1C | < 40 µM
CC(=O)N1CCN(c2cncc3sc(C(N)=O)cc23)CC1 | > 40 µM
CN(Cc1cccs1)c1cncc2sc(C(N)=O)c(N)c12 | < 40 µM
NC(=O)c1sc2cncc(Cl)c2c1N | < 40 µM
NC(=O)c1sc2cncc(N3CCN(c4ccccc4O)CC3)c2c1N | < 40 µM
NC(=O)c1sc2cncc(N3CCOCC3)c2c1N | < 40 µM
Cn1cc(CC(=O)N2CCN(c3cncc4sc(C(N)=O)c(N)c34)CC2)c2ccccc21 | < 40 µM
COc1ccc(C(=O)N2CCN(c3cncc4sc(C(N)=O)c(N)c34)CC2)cc1F | < 40 µM
NC(=O)c1sc2cncc(-c3ccncc3)c2c1N | > 40 µM
CN(C=O)c1ccc(C(=O)N2CCN(c3cncc4sc(C(N)=O)c(N)c34)CC2)cc1 | < 40 µM
Cc1noc(C)c1C(=O)N1CCN(c2cncc3sc(C(N)=O)c(N)c23)CC1 | < 40 µM
Cc1cccc(N2CCN(c3cncc4sc(C(N)=O)c(N)c34)CC2)n1 | < 40 µM
Cc1ccc(C(=O)N2CCN(c3cncc4sc(C(N)=O)c(N)c34)CC2)cn1 | < 40 µM

same assay, conditions: human, Tat-hybrid reporter cell lines (HeLa); Table 6; second 'EC50' entry of the cell, values D/E

Compound | EC50 at 48 h
Cc1cc(C(F)F)nc2sc(C(N)=O)c(N)c12 | > 40 µM
Cc1cc(C(F)(F)F)nc2sc(C(N)=O)c(N)c12 | > 40 µM
NC(=O)c1sc2nc(-c3cccnc3)ccc2c1N | < 40 µM

system: Tat-hybrid reporter cell lines (HeLa); test: as above; format: cell-based; settings: Table 6; at 50,000 nM
Method: as §1
as §1, with “Tat hybrid reporter assay. […] Previously characterized thienopyridines and diaminoacridine were used as controls. Cells” for “Cells”, “384-well” for “384-well or 96-well”, “lumincescence” for “luminescence”, “assays. […]” for “assays.”

Compound | Tat hybrid cell viability at 50,000 nM
COc1ccc(-c2cc(-c3ccc(Cl)cc3)c3c(N)c(C(N)=O)sc3n2)cc1 | X (X = >60%)
NC(=O)c1sc2nc(C(F)F)cc(-c3ccco3)c2c1N | Y (Y = 30-60%)
COc1ccc2nc3sc(C(N)=O)c(N)c3cc2c1 | X (X = >60%)
COc1ccc(NC(=O)c2sc3nc(N)c(C#N)c(-c4cccs4)c3c2N)cc1 | X (X = >60%)
NC(=O)c1sc2nc3c(cc2c1N)C(=O)CCC3 | X (X = >60%)
Cc1cc(C(F)F)nc2sc(C(N)=O)c(N)c12 | X (X = >60%)
NC(=O)c1sc2nc(-c3ccccc3)cc(-c3ccccc3)c2c1N | Tat hybrid % inhibition at 5,000 nM: Z Tat hybrid cell viability at 50,000 nM: Z U1% inhibition at 10,000 nm: Z (Z = <30%)
COCc1cc(C)c2c(N)c(C(N)=O)sc2n1 | Y (Y = 30-60%)
NC(=O)c1sc2nc(-c3ccccc3)cc(C(F)(F)F)c2c1N | X (X = >60%)
NC(=O)c1sc2nc(-c3ccc(Cl)cc3)cc(-c3ccc(Cl)cc3)c2c1N | X (X = >60%)
CN1CCc2nc3sc(C(N)=O)c(N)c3cc2C1 | X (X = >60%)
NC(=O)c1sc2nc(-c3ccc(F)cc3)cc(-c3ccccc3)c2c1N | X (X = >60%)
N#Cc1c(N)nc2sc(C(=O)Nc3ccc(Br)cc3)c(N)c2c1-c1cccs1 | X (X = >60%)
CCc1nnc(NC(=O)c2sc3nc(C)cc(COC)c3c2N)s1 | X (X = >60%)
NC(=O)c1sc2nc(-c3ccc4c(c3)OCCO4)cc(C(F)(F)F)c2c1N | X (X = >60%)
Cc1cc(C(F)(F)F)nc2sc(C(N)=O)c(N)c12 | Y (Y = 30-60%)
COc1ccc(-c2cc(-c3ccccc3)nc3sc(C(N)=O)c(N)c23)cc1 [drawing 256] | X (X = >60%)
COc1ccc(-c2c3c(nc4sc(C(N)=O)c(N)c24)CCCC3)cc1 | X (X = >60%)
COCc1cc(C)nc2sc(C(=O)Nc3ccc(C(C)=O)cc3)c(N)c12 | X (X = >60%)
CCN(CC)C(=O)c1sc2nc(C)cc(C)c2c1N | Y (Y = 30-60%)
N#Cc1c(N)nc2sc(C(=O)Nc3ccccc3)c(N)c2c1-c1cccs1 | X (X = >60%)
NC(=O)c1sc2nc(C3CC3)cc(-c3ccccc3)c2c1N | X (X = >60%)
NNC(=O)c1sc2ncccc2c1N | X (X = >60%)

Compound | Tat hybrid cell viability at 50,000 nM
COCc1cc(C)nc2sc(C(=O)N3CCOCC3)c(N)c12 | Y (Y = 30-60%)
NC(=O)c1sc2nc(-c3cccnc3)ccc2c1N | X (X = >60%)
COCc1cc(C)nc2sc(C(=O)Nc3ccc(NC(C)=O)cc3)c(N)c12 | X (X = >60%)
NC(=O)c1sc2nc(-c3cccs3)cc(C(F)(F)F)c2c1N | Y (Y = 30-60%)
N#Cc1c(N)nc2sc(C(N)=O)c(N)c2c1-c1ccc(Br)cc1 | X (X = >60%)
COc1cc2cc3c(N)c(C(N)=O)sc3nc2cc1OC | X (X = >60%)
NC(=O)c1sc2nc3c(c(-c4cccnc4)c2c1N)CCC3 | Z (Z = <30%)
N#Cc1c(N)nc2sc(C(=O)Nc3ccc(Cl)cc3)c(N)c2c1-c1cccs1 | X (X = >60%)
NC(=O)c1sc2nc3c(cc2c1N)CCCCC3 | X (X = >60%)
Cc1cc2cc3c(N)c(C(N)=O)sc3nc2cc1C | X (X = >60%)
COCc1cc(C)nc2sc(C(=O)c3ccc(Cl)cc3)c(N)c12 | X (X = >60%)
Cc1ccc2c(N)c(C(N)=O)sc2n1 [drawing 227] | X (X = >60%)
NC(=O)c1sc2[nH]c(=O)c(C(=O)O)cc2c1N | X (X = >60%)
Cc1ccc2cc3c(N)c(C(N)=O)sc3nc2c1C | X (X = >60%)
Cc1cc(C)c2nc3sc(C(N)=O)c(N)c3cc2c1 | X (X = >60%)
Cc1cc(NC(=O)c2sc3nc(C)c(C)c(C)c3c2N)no1 | X (X = >60%)
Cc1ccc2c(N)c(C(N)=O)sc2n1 [drawing 277] | X (X = >60%)
COC(=O)c1sc2nc(C)c(C)c(C)c2c1N | Y (Y = 30-60%)
NC(=O)c1sc2nc3c(cc2c1N)CCC3 | X (X = >60%)
CCc1ccc2nc3sc(C(N)=O)c(N)c3cc2c1 | X (X = >60%)
NC(=O)c1sc2nc(C34CC5CC(CC(C5)C3)C4)ccc2c1N | X (X = >60%)
COc1ccc2cc3c(N)c(C(N)=O)sc3nc2c1 | Y (Y = 30-60%)
Cc1ccc2nc3sc(C(N)=O)c(N)c3cc2c1 | X (X = >60%)

Compound | Tat hybrid cell viability at 50,000 nM
COc1ccc(C(=O)c2sc3nc(C)c(C)c(C)c3c2N)cc1OC | X (X = >60%)
NC(=O)c1sc2nc(C(F)F)cc(-c3ccccc3)c2c1N | X (X = >60%)
C=CCN(CC=C)C(=O)c1sc2nc(C)c(Cl)c(C)c2c1N | X (X = >60%)
N#Cc1cc2c(N)c(C(N)=O)sc2nc1N | Z (Z = <30%)
COCc1cc(C)nc2sc(C(=O)Nc3cc(C)ccc3F)c(N)c12 | X (X = >60%)
COCc1cc(C)nc2sc(C(=O)OC)c(N)c12 | X (X = >60%)
COc1ccc(-c2cc(-c3ccccc3)nc3sc(C(N)=O)c(N)c23)cc1 [drawing 268] | Y (Y = 30-60%)
NC(=O)c1sc2nc(-c3ccccc3)ccc2c1N | X (X = >60%)
Cc1nc2sc(C(=O)c3ccc(Cl)cc3)c(N)c2c(C)c1C | X (X = >60%)
COc1ccc(-c2c(C#N)c(N)nc3sc(C(N)=O)c(N)c23)cc1OC | Y (Y = 30-60%)
CC(=O)C1=C(C)Nc2sc(C(N)=O)c(N)c2C1c1cccnc1 (stereo not drawn) | X (X = >60%)
Cc1ccc(-c2cc(C(F)F)nc3sc(C(N)=O)c(N)c23)cc1 | X (X = >60%)
Cc1nc2sc(C(=O)c3ccccc3)c(N)c2c(C)c1C | X (X = >60%)
CCOc1ccc2nc3sc(C(N)=O)c(N)c3cc2c1 | X (X = >60%)
NC(=O)c1sc2nc(C3CC3)cc(-c3ccc(Cl)cc3)c2c1N | Y (Y = 30-60%)
CC(=O)C1=C(C)Nc2sc(C(N)=O)c(N)c2C1c1ccccc1 (stereo not drawn) | Y (Y = 30-60%)
Cc1ccc(-c2cc(-c3ccc(Cl)cc3)c3c(N)c(C(N)=O)sc3n2)cc1 | Tat hybrid % inhibition at 5,000 nM: Z Tat hybrid cell viability at 50,000 nM: Z U1% inhibition at 10,000 nm: Z (Z = <30%)
CCc1nc2sc(C(N)=O)c(N)c2cc1C | X (X = >60%)
COc1ccc(-c2c(C(=O)Nc3ccccc3)c(C)nc3sc(C(N)=O)c(N)c23)cc1 | X (X = >60%)
NC(=O)c1sc2nc3c(cc2c1N)CCCC3 | X (X = >60%)
Cc1cc(C)c2cc3c(N)c(C(N)=O)sc3nc2c1 | Z (Z = <30%)
Cc1cc(C)c2c(N)c(C(=O)NCC(=O)O)sc2n1 | X (X = >60%)
CN(C)c1ccnc2sc(C(=O)NCc3ccccc3)c(N)c12 | Y (Y = 30-60%)
